Data on nine compounds can be found in patent publication US20060276464A1, “Diarylsulfone sulfonamides and use thereof” (Wyeth, priority 2005, published 2006).

pEC50, pIC50: −log10 of the molar value. Where two headings read alike, the source gives them in different places.

For data set [1], the target named is T1, SFRP-1 (Homo sapiens, UniProt Q8N474).
T1 sequence (Q8N474 32-314): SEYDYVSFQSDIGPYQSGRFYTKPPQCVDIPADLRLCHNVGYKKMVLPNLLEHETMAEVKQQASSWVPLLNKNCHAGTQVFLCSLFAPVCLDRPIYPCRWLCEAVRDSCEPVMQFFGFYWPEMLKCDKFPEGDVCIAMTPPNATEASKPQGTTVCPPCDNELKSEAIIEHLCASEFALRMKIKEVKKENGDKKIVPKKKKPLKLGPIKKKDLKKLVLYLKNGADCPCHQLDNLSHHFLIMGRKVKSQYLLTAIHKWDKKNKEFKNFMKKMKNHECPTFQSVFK
Kind of data set: Fluorescence polarization binding assay (competitive displacement of a probe compound from SFRP-1).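 Note: test compound competes with a fluorescent probe held by SFRP-1, seen as a drop in probe anisotropy after incubation in darkness, with anisotropy as function of rising compound dose.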 Conditions: fluorescence anisotropy, 45 nM SFRP-1, 20 nM probe. A general note: Fluorescence polarisation rises when a labelled molecule tumbles more slowly, as on binding a larger partner.

Data set [2] has as its target T1, SFRP-1. Kind of data set: Cell-based assay for in vitro measurement of SFRP-1/SARP2 antagonist activity (U2OS cells co-transfected with 16x TCF-tk-Luciferase reporter, Wnt and hSFRP-1).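 For all read-outs here: U2OS cells co-transfected with a TCF-tk luciferase reporter, a Wnt vector, hSFRP-1 or empty vector and CMV-βgal, luciferase luminescence read in cell lysates alongside βgal activity.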 As to conditions: for fold induction at 15 µM / fold induction at 10 µM: U2OS; for fold induction at 15 µM: single dose, luciferase reporter; for fold induction at 10 µM: read-out: Fold Induction with SFRP-1, U2OS cells, single dose 10 μM, luciferase reporter, fold induction over SFRP-1 control. A general note: A reporter such as luciferase makes a cellular process visible.

Setting [3] is: read-out: Fold Induction with SFRP-1, Conc 15 μM, fold induction over SFRP-1 control, cells with SFRP-1.
The mark [4] stands for this setting: read-out: Fold Induction without SFRP-1, Conc 15 μM, cells without SFRP-1 (specificity control).

`CC(C)c1cc(C(C)C)c(S(=O)(=O)c2ccc(F)cc2)cc1S(=O)(=O)NCC1CCOCC1` [Example 629, 5-[(4-Fluorophenyl)sulfonyl]-2,4-diisopropyl-N-(tetrahydro-2H-pyran-4-ylmethyl)benzenesulfonamide] had a melting point of 200 to 202 °C. The compound also gave a pIC50 on SFRP-1 [1] of 5.52. Also, the fold induction at 15 µM at SFRP-1 [2] (setting [3]) was 2.1. In addition, the fold induction at 15 µM on SFRP-1 [2] (setting [4]) came out at 1.
For `CC(C)c1cc(C(C)C)c(S(=O)(=O)c2ccc(F)cc2)cc1S(=O)(=O)NCCC1CCOCC1` [Example 630, 5-[(4-Fluorophenyl)sulfonyl]-2,4-diisopropyl-N-[2-(tetrahydro-2H-pyran-4-yl)ethyl]benzenesulfonamide], the melting point is 141 to 143 °C. The pIC50 at SFRP-1 [1] is 5.40. The fold induction at 15 µM at SFRP-1 [2] (setting [3]) was 2.2. On SFRP-1 [2] (setting [4]), the fold induction at 15 µM turned out to be 1.
Taken in the same sequence, the figures for `CC(C)c1cc(C(C)C)c(S(=O)(=O)c2ccc(F)cc2)cc1S(=O)(=O)NCCc1ccccn1` [Example 631, 5-[(4-Fluorophenyl)sulfonyl]-2,4-diisopropyl-N-(2-pyridin-2-ylethyl)benzenesulfonamide] were 159 to 161 °C, 5.40, 2.4 and 1.
Taken in the same sequence, the figures for `CC(C)c1cc(C(C)C)c(S(=O)(=O)c2ccc(F)cc2)cc1S(=O)(=O)NCCc1cccnc1` [Example 632, 5-[(4-Fluorophenyl)sulfonyl]-2,4-diisopropyl-N-(2-pyridin-3-ylethyl)benzenesulfonamide] were 148 to 150 °C, 5.59, 3 and 1.
Turning to `CC(C)c1ccc(S(=O)(=O)c2ccccc2)cc1S(=O)(=O)NC1CCN(C(=O)c2ccccc2)CC1` [Example 802, N-(1-Benzoylpiperidin-4-yl)-2-isopropyl-5-(phenylsulfonyl)benzenesulfonamide], the melting point amounted to 225 °C. This compound showed a pIC50 on SFRP-1 [1] of 6.77. On SFRP-1 [2], the pEC50 was 6.52 and the fold induction at 10 µM came to 2.6.
In the case of `COc1ccccc1C(=O)N1CCC(NS(=O)(=O)c2cc(S(=O)(=O)c3ccccc3)ccc2C(C)C)CC1` [Example 803, 2-Isopropyl-N-[1-(2-methoxybenzoyl)piperidin-4-yl]-5-(phenylsulfonyl)benzenesulfonamide], the melting point was 160 to 162 °C. The compound further showed a pIC50 at SFRP-1 [1] of 6.54. For the same compound, the fold induction at 10 µM on SFRP-1 [2] came to 3.2.
In the same order, the values of `CC(C)c1ccc(S(=O)(=O)c2ccccc2)cc1S(=O)(=O)NC1CCN(C(=O)c2cccc(F)c2)CC1` [Example 804, N-[1-(3-Fluorobenzoyl)piperidin-4-yl]-2-isopropyl-5-(phenylsulfonyl)benzenesulfonamide] are 215 to 218 °C, 6.52 and 3.
Compound `CC(C)c1ccc(S(=O)(=O)c2ccccc2)cc1S(=O)(=O)NC1CCN(C(=O)c2ccc(F)cc2)CC1` [Example 805, N-[1-(4-Fluorobenzoyl)piperidin-4-yl]-2-isopropyl-5-(phenylsulfonyl)benzenesulfonamide] showed a melting point of 218 to 220 °C. For the same compound, at SFRP-1 [1], the pIC50 is 6.40. Moreover, on SFRP-1 [2], the pEC50 was 6.29 and the fold induction at 10 µM is 3.
`CC(C)c1ccc(S(=O)(=O)c2ccccc2)cc1S(=O)(=O)NC1CCN(C(=O)c2ccccc2F)CC1` [Example 806, N-[1-(2-Fluorobenzoyl)piperidin-4-yl]-2-isopropyl-5-(phenylsulfonyl)benzenesulfonamide] registered a melting point of 210 to 212 °C. In addition, the pIC50 on SFRP-1 [1] was 6.64. Also, on SFRP-1 [2], the pEC50 was 6.62 and the fold induction at 10 µM stood at 2.8.

What is called pIC50 is the IC50 on a negative log10 scale, so that one unit is a factor of ten. Higher therefore signals a small IC50. A word on the melting point: it is the temperature of the solid-liquid transition. For orientation: pEC50 means the negative decadic logarithm of the EC50, by convention in mol/L.
